From PMC8688338 (Molecular microbiology, 2021)
Several values for one entry are separate records, joined by “and”; a condition that tells them apart may be missing. Equal entries are not always repeated. Where two headings read alike, the source gives them in different places.

How the values were obtained:
[1] = system: vaginal trichomonad infection; conditions: murine model of vaginal trichomonad infection; ref Natto et al., 2021; cited from earlier work
[2] = system: T. vaginalis nucleoside transporters, Adenosine (HA); assay: High affinity [3H]-adenosine transport in T. vaginalis trophozoites; assay type: cell-based, Trichomonas vaginalis; conditions: for Ki: read-out: Ki,app, inhibition of […] [3H]-adenosine transport, monophasic
[3] = biological target: T. vaginalis nucleoside transporters, Guanosine (HA); assay: [3H]-guanosine transport in T. vaginalis trophozoites; assay type: cell-based, Trichomonas vaginalis; conditions: read-out: Ki,app; inhibition of [3H]-guanosine transport; monophasic sigmoid curve; average and SEM
[4] = biological target: T. vaginalis nucleoside transporters, Inosine (LA); assay: Low affinity [3H]-inosine transport in T. vaginalis trophozoites; assay type: cell-based, Trichomonas vaginalis; conditions: read-out: Ki,app, inhibition of 1 µM [3H]-inosine uptake, average and SEM
[5] = biological target: T. vaginalis nucleoside transporters, Uridine (HA); assay: [3H]-uridine transport in T. vaginalis trophozoites; assay type: cell-based, Trichomonas vaginalis; conditions: read-out: Ki,app; inhibition of 0.5 µM [3H]-uridine transport, 30 s; average and SEM
[6] = biological target: T. vaginalis nucleoside transporters, Cytidine (HA); assay: High affinity [3H]-cytidine transport in T. vaginalis trophozoites; assay type: cell-based, Trichomonas vaginalis; conditions: read-out: Ki,app, inhibition of […] [3H]-cytidine transport, 30 s, average and SEM
[7] = system: T. vaginalis nucleoside transporters, Adenosine (LA); assay: Low affinity adenosine transport; assay type: cell-based, Trichomonas vaginalis; conditions: for EC50 / Ki: inhibition of 20 µM [3H]-adenosine transport; for EC50: Fig. 4; for Km: read-out: Km,app; for inhibition of transport: highest tested concentration: guanosine 250 µM, adenine 1 mM, hypoxanthine 1 mM, uracil 10 mM; for Ki: read-out: Ki,app
[8] = biological target: T. vaginalis nucleoside transporters, Cytidine (LA); assay: Low affinity cytidine transport in T. vaginalis trophozoites; assay type: cell-based, Trichomonas vaginalis; conditions: read-out: Ki,app; inhibition of Cytidine (LA) transport; average and SEM
[9] = system: T. vaginalis nucleoside transporters, Thymidine (LA); assay: Low affinity thymidine transport; assay type: cell-based, Trichomonas vaginalis; conditions: for EC50: Fig. 3E
[10] = system: low affinity pyrimidine nucleobase transporter of T. vaginalis; assay: [3H]-uracil transport in T. vaginalis trophozoites; assay type: cell-based, Trichomonas vaginalis; conditions: for inhibition of uracil transport: uridine, thymidine up to 10 mM, adenosine, inosine up to 1 mM
[11] = system: T. vaginalis adenine transporter; assay: [3H]-adenine transport in T. vaginalis trophozoites; assay type: cell-based, Trichomonas vaginalis
[12] = system: T. vaginalis nucleoside transporters; conditions: ref Harris et al., 1988; cited from earlier work
[13] = biological target: TvagENT6 (Trichomonas vaginalis, UniProt A2EMT5); assay: cell-based
[14] = biological target: TvagENT3 (Trichomonas vaginalis, UniProt A2E5Q3); assay: [3H]-cytidine uptake by T. brucei TbAT1-KO cells expressing TvagENT3
[15] = system: T. vaginalis trophozoites; assay: [3H]-guanine transport in T. vaginalis trophozoites; assay type: cell-based, Trichomonas vaginalis; conditions: 2 µM [3H]-guanine
[16] = system: T. vaginalis nucleoside transporters, Thymidine (HA); assay: Higher affinity [3H]-thymidine transport; assay type: cell-based, Trichomonas vaginalis; conditions: for inhibition of transport: nucleobase at 1 mM
[17] = system: T. vaginalis trophozoites; conditions: 1 µM [3H]-hypoxanthine over 300 s, with or without 1 mM unlabelled hypoxanthine
[18] = system: P1 transporter; conditions: thymidine uptake by P1 transporter; ref De Koning and Jarvis, 1999; cited from earlier work
[19] = system: uracil transporter; assay type: cell-based, Trypanosoma brucei; conditions: 0.25 µM [3H]-uridine, control (empty vector) cells, 250 µM uracil
[20] = system: O=c1ccn([C@@H]2O[C@H](CO)[C@@H](O)[C@H]2O)c(=O)[nH]1; assay: cells, lysate or membranes; conditions: other: single experiment, Fig. 11D inset
[21] = Lineweaver-Burk double reciprocal plot, single experiment, Fig. 3F
[22] = single experiment, Fig. 3C inset
[23] = saturation curve, single experiment, Fig. 3E inset
[24] = single experiment, Fig. 5D inset

In the case of Nc1ncnc2c1c(-c1ccc(Cl)cc1)cn2[C@@H]1O[C@H](CO)[C@@H](O)[C@H]1O [7-(4-Cl-phenyl),7-deazaadenosine], the efficacy [1] is given as “efficacious”.

In the case of Nc1ncnc2c1ncn2[C@@H]1O[C@H](CO)[C@@H](O)[C@H]1O [adenosine], the “rate of transport in the presence of unlabelled permeant” value ([2]; 0.25 µM [3H]-adenosine + 1 mM unlabelled adenosine) is reported as 0.0091 ± 0.0085 pmol(10^7 cells)^−1s^−1, the inhibition of uptake ([2]; 0.25 µM [3H]-adenosine by 1 mM unlabelled adenosine) is reported as over 99% and the rate of transport ([2]; 0.25 µM [3H]-adenosine, over 60 s, uninhibited) is reported as 1.15 pmol(10^7 cells)^−1s^−1 and 1.15 ± 0.06 pmol(10^7 cells)^−1s^−1. For the same compound, the Vmax ([2]; Adenosine (HA), average and SEM) was 9.5 ± 2.4 pmol(10^7 cells)^−1s^−1, the Km ([2]; read-out: Km,app, Adenosine (HA), […] [3H]-adenosine, 30 s, average and SEM) was 6.2 ± 0.6 µM and the Ki [3] was 4.1 ± 0.9 µM. The Ki [4] was 6.36 ± 1.69 µM, the Ki ([4]; listed as Adenosine) was 6.4 ± 1.7 µM and the Ki [5] was 8.16 ± 0.59 µM. For the same compound, the Ki [6] was 2.18 ± 0.29 µM, the Ki ([6]; listed as Adenosine) was 2.2 ± 0.3 µM and the Vmax ([7]; Adenosine (LA), average and SEM) was 31 ± 2 pmol(10^7 cells)^−1s^−1. The EC50 ([7]; single experiment) was 60.5 µM, the Km ([7]; Adenosine (LA), 20 µM [3H]-adenosine, average and SEM) was 59.4 ± 6.1 µM and the Km ([7]; Adenosine (LA), 20 µM [3H]-adenosine, average and SEM, listed as Adenosine) was 59 ± 6 µM. The Km ([7]; single experiment, Fig. 4A inset) was 63.5 µM, the Ki [8] was 357 ± 32 µM and the EC50 ([9]; 1 µM [3H]-thymidine, single experiment) was 89.8 µM. For the same compound, the “inhibition of uracil transport” value [10] was “unable to inhibit”, the EC50 [11] was 85.9 µM and the Ki ([11]; read-out: Ki,app, inhibition of 50 nM [3H]-adenine transport) was 155 ± 48 µM. For the same compound, the Km [12] was 3.9 µM, the Ki [13] was 47.2 ± 6.4 µM and the Hill slope [14] was −1.04 ± 0.07. The “inhibition of cytidine uptake” value ([14]; 0.5 µM [3H]-cytidine, inhibitor at 400 µM) was “completely” and the Hill slope ([14]; single experiment, Fig. 10D-F) was −1.1.

For Nc1nc2nc[nH]c2c(=O)[nH]1 [guanine], the rate of uptake [15] was 0.017 ± 0.002 pmol(10^7 cells)^−1s^−1 and 0.0167 ± 0.0020 pmol(10^7 cells)^−1s^−1.

Compound O=c1[nH]cnc2nc[nH]c12 [hypoxanthine] has a Ki ([2]; 30 s, average and SEM) of 185 ± 37 µM, an inhibition of transport ([16]; 125 nM [3H]-thymidine) of at most 50% and an inhibition of transport ([7]; 20 µM [3H]-adenosine) of at most 50%. For the same compound, the Ki ([7]; average and SEM) was over 1000 µM and the specific uptake [17] was “no specific uptake”.

With Cc1cn([C@H]2C[C@H](O)[C@@H](CO)O2)c(=O)[nH]c1=O [thymidine] the Ki ([2]; 30 s, average and SEM) was 274 ± 45 µM, the Ki [3] was 206 ± 62 µM and the inhibition of uptake ([16]; 0.125 µM [3H]-thymidine by 1 mM unlabelled thymidine) was 75%. For the same compound, the rate of uptake ([16]; 0.125 µM [3H]-thymidine, average of 4 experiments over 60 s) was 0.0045 ± 0.0012 pmol(10^7 cells)^−1s^−1, the “Vmax, higher affinity component” value [16, 21] was 2.2 pmol(10^7 cells)^−1s^−1 and the Vmax ([16]; Thymidine (HA), average and SEM) was 0.69 ± 0.37 pmol(10^7 cells)^−1s^−1. For the same compound, the Vmax ([16]; Thymidine (HA), average and SEM, listed as Thymidine) was 6.7 ± 1.8 pmol(10^7 cells)^−1s^−1, the EC50 ([16]; inhibition of 0.125 µM [3H]-thymidine uptake, single experiment, Fig. 3C/D) was 11.7 µM and the Km ([16]; read-out: Km, higher affinity component, Lineweaver-Burk double reciprocal plot, single experiment, Fig. 3F) was 23.6 µM. The Km ([16]; read-out: Km,app, Thymidine (HA), 125 nM [3H]-thymidine, average and SEM) was 13.2 ± 0.8 µM, the Km [16, 22] was 15.1 µM and the Vmax [16, 22] was 0.245 pmol(10^7 cells)^−1s^−1. The EC50 ([7]; single experiment) was 817 µM, the Ki ([7]; average and SEM) was 557 ± 135 µM and the rate of uptake ([9]; 1 µM [3H]-thymidine) was 0.139 ± 0.008 pmol(10^7 cells)^−1s^−1. The “rate of uptake in the presence of unlabelled permeant” value ([9]; 1 µM [3H]-thymidine + 1 mM thymidine) was 0.013 ± 0.0018 pmol(10^7 cells)^−1s^−1, the inhibition of uptake ([9]; 1 µM [3H]-thymidine by 1 mM unlabelled thymidine) was 90.6% and the “Vmax, low affinity component” value [9, 21] was 12.0 pmol(10^7 cells)^−1s^−1. For the same compound, the Vmax ([9]; Thymidine (LA), average and SEM) was 9.4 ± 2.5 pmol(10^7 cells)^−1s^−1, the EC50 ([9]; read-out: EC50, higher affinity component, 1 µM [3H]-thymidine, 2-site equation, single experiment) was 10.7 µM and the EC50 ([9]; read-out: EC50, lower affinity component, 1 µM [3H]-thymidine, 2-site equation, single experiment) was 529 µM. For the same compound, the Km ([9]; read-out: Km, low affinity component, Lineweaver-Burk double reciprocal plot, single experiment, Fig. 3F) was 340 µM, the Km ([9]; read-out: Km,app, Thymidine (LA), 1 µM [3H]-thymidine, average and SEM) was 470 ± 104 µM and the Km [9, 23] was 394 µM. For the same compound, the Vmax [9, 23] was 12.9 pmol(10^7 cells)^−1s^−1, the “inhibition of uracil transport” value [10] was “unable to inhibit” and the affinity [18] was 44 µM. The Hill slope [14] was −1.17 ± 0.15, the Ki [14] was 286 ± 12 µM and the inhibition at 400 µM ([14]; read-out: inhibition of cytidine uptake) was 62.6%. The Hill slope ([14]; single experiment, Fig. 10D-F) was −1.1.

In the case of O=c1cc[nH]c(=O)[nH]1 [uracil], the inhibition of transport ([16]; 125 nM [3H]-thymidine) is reported as at most 50%, the inhibition of transport ([7]; 20 µM [3H]-adenosine) is reported as at most 50% and the Ki ([7]; average and SEM) is reported as over 10000 µM. For the same compound, the rate of uptake ([10]; 0.5 µM [3H]-uracil) was 0.0056 ± 0.0003 pmol(10^7 cells)^−1s^−1, the “rate of uptake in the presence of unlabelled permeant” value ([10]; 0.5 µM [3H]-uracil + 1 mM unlabelled uracil) was 0.0011 ± 0.0002 pmol(10^7 cells)^−1s^−1 and the EC50 ([10]; 0.5 µM [3H]-uracil over 20 s, single experiment, Fig. 5D) was 247 µM. For the same compound, the Vmax ([10]; 0.5 µM [3H]-uracil, 20 s, average) was 1.58 ± 0.08 pmol(10^7 cells)^−1s^−1, the Km ([10]; read-out: Km,app, 0.5 µM [3H]-uracil, 20 s, average) was 257 ± 58 µM and the Km [10, 24] was 298 µM. For the same compound, the Vmax [10, 24] was 1.43 pmol(10^7 cells)^−1s^−1 and the “reduction of background uridine uptake” value [19] was ~ 85% and 84.7%.

TvagENT6 (Trichomonas vaginalis G3) gave a Km [20] of 125.4 µM.
